Data as given in patent US20060019320A1, “Wnt mediated erbb signalling, compositions and uses related thereto” (priority 2002, published 2006).

Columns and labels:
[1] = system: cyclin D1; experiment: Cyclin D1 immunoblot in HC11 cells; type: cell-based, mouse; conditions: Wnt1- and Wnt5a-HC11 cells treated 6 hr
Method: Briefly, WCL was prepared from HC11, Wnt1- and Wnt5a-expressing HC11 cells and 50 μg immunoblotted essentially as described above using commercially available antibodies against cyclin D1 (NovaCastra) or cyclin D2 (SantaCruz). Both Wnt1- and Wnt5a-HC11 cells express higher levels of cyclin D1, in comparison to HC11 cells. In addition, Wnt1-HC11 cells but not C- or Wnt5a-HC11 cells express cyclin D2.
C-HC11 cells were also treated 6 hrs with CM from Wnt-HC11 cells. WCL were prepared and 50 μg was immunoblotted for Cyclin D1 or Cyclin D2. Similar to the results with the Wnt-HC11 cell lines, both Wnts (CM) stimulated Cyclin D1 expression, while only Wnt1 enhanced cyclin D2 levels.
To assess the contribution of Wnt-transactivated ErbB1 on cyclin D1 and D2 expression, C- and Wnt-HC11 cells were treated 6 hr with PKI166 or CGS27023A or EGF. […] In contrast, the ErbB1 inhibitor had no effect on cyclin D2 levels. […] Thus, cyclin D1 and cyclin D2 are differentially controlled. Both Wnt1 and Wnt5a transactivate ErbB1, which results in increased expression of cyclin D1; in contrast cyclinD2 is only elevated in Wnt1 expressing cells and this is independent of ErbB1 activity.

[2] = system: ERK1/2; experiment: phospho-ERK1/2 immunoblot (MAPK activity) in HC11 cells; type: cell-based, mouse; conditions: for ability of the Wnt proteins to stimulate ERK1/2 activity: C-HC11 pretreated 1 hr with inhibitor, then Wnt CM for 10 minutes
Excerpt: The MAPK and PI3K pathways are major signaling cascades downstream of activated ErbB receptors (Olayioye et al., 2000). Antisera specific for the active, phosphorylated forms of ERK1/2 and PKB, the major kinases on the respective pathways, were used to probe for their activity. 50 micrograms of WCL were immunoblotted essentially as described above with the exception that a phospho-ERK1/2 antibody (commercially available, New England Biolabs) or a phosphoPKB antibody was used. Membranes were stripped and reprobed for ERK1/2 (anti-p44/42 ERK, New England Biolabs).
Briefly, conditioned media (CM) from Wnt-HC11 cells prepared as described in Example 1 was tested for its effect on ErbB1 and MAPK activity, essentially as described above. Treatment of C-HC11 cells for 10 min with Wnt1- and Wnt5a-CM stimulated phospho-ERK1/2 levels 5-6-fold, whereas CM from C-HC11 cells had no effect.
To rule out the potential involvement of ErbB1 ligands in mediating the effects of Wnt-containing CM, we used secreted Frizzled-related protein-1 (sFRP-1), which binds Wnt preventing it from binding Fz (Uren et al., 2000). CM from human embryonic kidney (HEK293) cells stably expressing the sFRP1 expression vector or control HEK 293 cells was premixed 1 hr with Wnt-containing CM (1:1) before adding to C-HC11 cultures for 10 min. Simultaneous addition of CM from sFRP1-producing 293 cells with Wnt-containing CM prevented Wnt1 and Wnt5a from increasing phospho-ERK1/2 levels, showing that sFRP1 blocks Wnt signalling through Fz to ErbB1. As a control, the cells were also treated for 10 minutes with EGF in the presence of sFRP1.
To test for a role of metalloproteinases in Wnt-expressing HC11 cells, two metalloproteinase inhibitors were used, namely phenanthroline (Calbiochem), a metal ion chelator, or CGS27023A, an enzymatic inhibitor (Wang et al., 1999). Cells were treated for 1 hour with phenathroline, CGS27023A, (both at 50μM) or DMSO carrier. ErbB1 was immunoprecipitated from 500 micrograms WCL and immunoblotted with a phosphotyrosine specific antibody, essentially as described above. Membranes were stripped and reprobed for ErbB1. ERK1/2 was probed from 50 micrograms of WCL, immunoblotted with a phospho-ERK1/2 antibody, essentially as described above. Membranes were stripped and reprobed for ERK1/2.
The metalloproteinase inhibitors were next tested in the presence of Wnt-containing CM. C-HC11 cultures were pretreated 1 hr with metalloproteinase inhibitors before treatment with CM from C- or Wnt-HC11 cells for 10 minutes. Phospho-ERK1/2 levels were determined as above. Phenanthroline and CGS 27023A each blocked the ability of the Wnt proteins to stimulate ERK1/2 activity in C-HC11 cells. Similar results were obtained with HC11 cells constitutively expressing the Wnt proteins. Thus, Wnt-mediated activation of ErbB1 and ERK is dependent on a metalloproteinase activity.

[3] = system: cyclin D2; experiment: Cyclin D2 immunoblot in HC11 cells; type: cell-based, mouse; conditions: Wnt-HC11 cells treated 6 hr
Method: Briefly, WCL was prepared from HC11, Wnt1- and Wnt5a-expressing HC11 cells and 50 μg immunoblotted essentially as described above using commercially available antibodies against cyclin D1 (NovaCastra) or cyclin D2 (SantaCruz). Both Wnt1- and Wnt5a-HC11 cells express higher levels of cyclin D1, in comparison to HC11 cells. In addition, Wnt1-HC11 cells but not C- or Wnt5a-HC11 cells express cyclin D2. C-HC11 cells were also treated 6 hrs with CM from Wnt-HC11 cells. WCL were prepared and 50 μg was immunoblotted for Cyclin D1 or Cyclin D2. Similar to the results with the Wnt-HC11 cell lines, both Wnts (CM) stimulated Cyclin D1 expression, while only Wnt1 enhanced cyclin D2 levels. To assess the contribution of Wnt-transactivated ErbB1 on cyclin D1 and D2 expression, C- and Wnt-HC11 cells were treated 6 hr with PKI166 or CGS27023A or EGF. […] In contrast, the ErbB1 inhibitor had no effect on cyclin D2 levels. […] Thus, cyclin D1 and cyclin D2 are differentially controlled. Both Wnt1 and Wnt5a transactivate ErbB1, which results in increased expression of cyclin D1; in contrast cyclinD2 is only elevated in Wnt1 expressing cells and this is independent of ErbB1 activity.

[4] = molecular target: T1, ErbB1 (Mus musculus, UniProt Q01279); experiment: ErbB1 immunoprecipitation and phosphotyrosine immunoblot in HC11 cells; type: cell-based; conditions: Wnt-HC11 cells, 5 microM for 1 hr
T1 construct: endogenous in cells; host or cells: HC11 mammary cells (C-HC11, Wnt1-HC11, Wnt5a-HC11)
T1 sequence (Q01279 25-1210): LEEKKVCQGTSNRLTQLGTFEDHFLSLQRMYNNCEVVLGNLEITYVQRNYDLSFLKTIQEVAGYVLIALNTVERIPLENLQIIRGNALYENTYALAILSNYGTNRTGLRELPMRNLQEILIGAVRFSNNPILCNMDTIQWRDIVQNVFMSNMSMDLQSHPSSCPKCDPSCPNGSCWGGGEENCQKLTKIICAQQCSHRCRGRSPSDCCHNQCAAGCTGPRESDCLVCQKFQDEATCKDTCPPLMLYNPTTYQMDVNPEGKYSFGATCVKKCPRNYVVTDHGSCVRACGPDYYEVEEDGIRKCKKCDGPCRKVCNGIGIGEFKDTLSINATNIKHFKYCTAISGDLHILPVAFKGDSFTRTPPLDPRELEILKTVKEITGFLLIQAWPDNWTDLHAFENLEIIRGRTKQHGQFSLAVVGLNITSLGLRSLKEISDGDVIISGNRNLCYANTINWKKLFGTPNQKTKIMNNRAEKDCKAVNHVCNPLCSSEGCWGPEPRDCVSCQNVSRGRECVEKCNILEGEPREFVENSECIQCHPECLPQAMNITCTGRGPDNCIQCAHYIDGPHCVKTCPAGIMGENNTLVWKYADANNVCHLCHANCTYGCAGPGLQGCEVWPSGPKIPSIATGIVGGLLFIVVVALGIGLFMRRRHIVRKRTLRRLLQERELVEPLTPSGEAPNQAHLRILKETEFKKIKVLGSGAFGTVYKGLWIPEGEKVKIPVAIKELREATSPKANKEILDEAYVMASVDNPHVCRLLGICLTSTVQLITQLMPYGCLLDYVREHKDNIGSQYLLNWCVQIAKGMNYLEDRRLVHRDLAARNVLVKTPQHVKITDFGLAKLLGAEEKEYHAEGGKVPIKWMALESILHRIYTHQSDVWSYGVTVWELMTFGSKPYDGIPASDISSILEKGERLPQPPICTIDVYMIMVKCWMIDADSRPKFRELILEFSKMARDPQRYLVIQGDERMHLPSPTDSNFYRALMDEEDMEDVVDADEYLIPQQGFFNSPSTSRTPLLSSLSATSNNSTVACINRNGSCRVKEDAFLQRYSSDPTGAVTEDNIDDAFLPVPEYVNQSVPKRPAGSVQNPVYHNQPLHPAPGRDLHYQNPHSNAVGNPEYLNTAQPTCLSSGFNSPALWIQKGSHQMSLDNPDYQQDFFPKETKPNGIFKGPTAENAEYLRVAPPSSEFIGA
Method: ErbB1 is transactivated by many classes of membrane proteins (Carpenter, 1999; Gschwind et al., 2001). However, Wnt/VFz-mediated activation of ErbB1 has not been reported previously. Since ErbB1 tyrosine phosphorylation is an essential step in ErbB1 activation, we examined whether Wnt can activate ErbB1, by immunoprecipitating the receptor form Wnt/HC11 cells and performing a Westem analysis with phosphotyrosine specific antiserum. For these experiments HC11 cells were grown over night in medium without EGF. As a control for ErbB1 activation, C-HC 11 and Wnt-HC11 cells were treated for 10 minutes with 100 ng/ml EGF. An ErbB1 selective kinase inhibitor PKI166 (Traxler et al., 2001) was also used in some experiments. For this, the cells were pretreated 1 hr with 5 microM PKI 166, or left untreated, before preparing WCLs, essentially as described in Example 1.
ErbB1 was immunoprecipitated from 500 micrograms WCL and immunoblotted with a phosphotyrosine specific antibody (anti-phosphotyrosine AG10, Upstate Biotechnology) essentially as described previously (Lane et al., 2000). Membranes were stripped by placing them in 2% SDS, 62.5 mM Tris pH 6.8, 100 mM beta-mercaptoethanol at 60° C. for 30 min. Stripped membranes were reprobed for ErbB1 using a commercially available antibody (antibody 1005,Santa Cruz Biotechnology). […]

| SMILES | cyclin D1 level [1] | ability of the Wnt proteins to stimulate ERK1/2 activity [2] | ability of Wnt-containing CM to stimulate phospho-ERK1/2 levels ([2]; C-HC11 cells pre-treated for 1 hour with inhibitor) | EGF induction of MAPK activity ([2]; C-HC11 cells, pretreatment with inhibitor) | constitutive level of phospho-ERK1/2 ([2]; Wnt-expressing HC11 cells) | cyclin D2 levels [3] | decrease of ErbB1's phosphotyrosine level [4] |
| --- | --- | --- | --- | --- | --- | --- | --- |
| COc1ccc(S(=O)(=O)N(Cc2cccnc2)[C@@H](C(=O)NO)C(C)C)cc1 [CGS27023A] | decreased expression | blocked |  |  |  |  |  |
| C[C@@H](Nc1ncnc2[nH]c(-c3ccc(O)cc3)cc12)c1ccccc1 [PKI166] | reduced cyclin D1 to the control level |  | blocked | prevented | reduced the constitutive level of phospho-ERK1/2 to basal | no effect | approximately 50% |
| c1cnc2c(c1)ccc1cccnc12 [Phenanthroline, phenanthroline] |  | blocked |  |  |  |  |  |
